Data: patent US11414395B2, “Heterocyclic compounds as modulators of mGluR7” (PRAGMA Therapeutics, priority 2017, dated 2022)

Target: human mGluR7 (Homo sapiens (Human), UniProt Q14831)
Assay: Inositol monophosphate production assay (IP1 assay), inhibition of L-AP4 response
Assay type: cell-based
Conditions: mean IC50 from at least two independent experiments; HEK293 cells transiently transfected with mGluR7, Gqtop and EAAC1; IP1 production vs EC80 L-AP4
Text: Inositol Monophosphate Production Assay (IP1 Assay):
HEK293 cells were transiently transfected with mGluR7 by electroporation and seeded in a poly-ornithine coated 96-well plate at the density of 150 000 cells/well. To allow the monitoring of receptor activity through measurements of inositol monophosphate (IP1) production, mGluR7 was transfected with a chimeric Gq/Gi protein (Gqtop). and was also co-transfected with EAAC1, a glutamate transporter, to avoid influence of extracellular glutamate. Cells were cultured in Dulbecco's Modified Eagle Medium (DMEM, Invitrogen, Cergy Pontoise, France), supplemented with 10% of Fetal Bovine Serum (FBS). Medium was changed by Glutamax™ (Invitrogen, Cergy Pontoise, France) to reduce extracellular glutamate concentration 3 hours before stimulation
IP1 production was determined using the IP-One HTRF kit (CisBio Bioassays), a competitive immunoassay using cryptate-labeled anti-IP1 antibody and d2-labeled IP, according to the manufacturer's recommendations. All points were realized in triplicate.
Data were analyzed with Prism 6 software (GraphPadSoftware, San Diego, Calif.). Typically, in each experiment, a four-parameter concentration-response curve equation was used to fit data and potency (IC50) is estimated as logarithms (log IC50). Data were calculated as % of the control mGluR7 agonist L-AP4 response, defined as the response that is generated upon addition of an EC80-equivalent concentration of L-AP4.
The Table 2 below represents the mean IC50 obtained from at least two independent experiments.

Sequence of human mGluR7 (Q14831 35-915): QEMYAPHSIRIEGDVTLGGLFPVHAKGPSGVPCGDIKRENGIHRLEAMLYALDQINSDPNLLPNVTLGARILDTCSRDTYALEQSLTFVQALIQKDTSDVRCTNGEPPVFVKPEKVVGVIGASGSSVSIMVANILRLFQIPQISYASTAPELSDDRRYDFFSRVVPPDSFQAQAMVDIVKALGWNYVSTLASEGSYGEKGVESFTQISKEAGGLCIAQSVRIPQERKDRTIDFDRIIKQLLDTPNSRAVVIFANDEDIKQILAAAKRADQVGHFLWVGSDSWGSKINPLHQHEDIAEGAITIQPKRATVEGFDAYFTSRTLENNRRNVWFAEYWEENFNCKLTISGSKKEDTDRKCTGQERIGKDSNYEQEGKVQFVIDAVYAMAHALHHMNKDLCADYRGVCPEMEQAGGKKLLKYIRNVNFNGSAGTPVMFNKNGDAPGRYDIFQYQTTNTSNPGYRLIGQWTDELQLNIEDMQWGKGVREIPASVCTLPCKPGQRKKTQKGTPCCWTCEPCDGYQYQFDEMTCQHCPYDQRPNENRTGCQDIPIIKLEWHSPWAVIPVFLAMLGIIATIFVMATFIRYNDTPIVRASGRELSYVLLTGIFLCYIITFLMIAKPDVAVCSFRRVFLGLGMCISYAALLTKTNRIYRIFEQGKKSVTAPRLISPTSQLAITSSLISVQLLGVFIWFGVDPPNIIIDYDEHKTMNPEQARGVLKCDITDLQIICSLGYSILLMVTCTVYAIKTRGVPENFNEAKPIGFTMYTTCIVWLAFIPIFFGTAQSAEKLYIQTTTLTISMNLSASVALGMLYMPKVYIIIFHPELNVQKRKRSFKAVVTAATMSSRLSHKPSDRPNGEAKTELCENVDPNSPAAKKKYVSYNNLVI

| IC50 [nM] | SMILES |
| --- | --- |
| < 500 | COc1cccc(C2CCc3c(cnn(-c4ccc(N5CCOCC5)cn4)c3=O)C2)c1C (centres unmarked) [Example 113, 6-(3-methoxy-2-methylphenyl)-2-(5-morpholinopyridin-2-yl)-5,6,7,8-tetrahydrophthalazin-1(2H)-one] |
| < 500 | COc1cccc(C2CCc3c(cnn(-c4ccc(C5CC5)cn4)c3=O)C2)c1C (centres unmarked) [Example 110, 2-(5-cyclopropylpyridin-2-yl)-6-(3-methoxy-2-methylphenyl)-5,6,7,8-tetrahydrophthalazin-1(2H)-one] |
| < 500 | COc1cccnc1-n1ncc2c(c1=O)CCC(c1ccc(C)cc1C)C2 (centres unmarked) [Example 16, 6-(2,4-dimethylphenyl)-2-(3-methoxypyridin-2-yl)-5,6,7,8-tetrahydrophthalazin-1(2H)-one] |
| 500 to 1000 | COc1ccc(C)c(C2CCc3c(cnn(-c4ncc(C5CC5)cn4)c3=O)C2)c1 (centres unmarked) [Example 107, 2-(5-cyclopropylpyrimidin-2-yl)-6-(5-methoxy-2-methylphenyl)-5,6,7,8-tetrahydrophthalazin-1(2H)-one] |
| 500 to 1000 | Cc1c(OCC2CC2)cccc1C1CCc2c(cnn(-c3ncccn3)c2=O)C1 (centres unmarked) [Example 102, 6-(3-(cyclopropylmethoxy)-2-methylphenyl)-2-(pyrimidin-2-yl)-5,6,7,8-tetrahydrophthalazin-1(2H)-one] |
| < 500 | COc1cccc(C2CCc3c(cnn(-c4ncc(C)cn4)c3=O)C2)c1Cl (centres unmarked) [Example 94, 6-(2-chloro-3-methoxyphenyl)-2-(5-methylpyrimidin-2-yl)-5,6,7,8-tetrahydrophthalazin-1(2H)-one] |
| < 500 | Cc1cnc(-n2ncc3c(c2=O)CCC(c2cccc(OC4CC4)c2C)C3)nc1 (centres unmarked) [Example 93, 6-(3-cyclopropoxy-2-methylphenyl)-2-(5-methylpyrimidin-2-yl)-5,6,7,8-tetrahydrophthalazin-1(2H)-one] |
| < 500 | Cc1ccc(C2CCc3c(cnn(-c4cccnc4)c3=O)C2)c(C)c1 (centres unmarked) [Example 28, 6-(2,4-dimethylphenyl)-2-(pyridin-3-yl)-5,6,7,8-tetrahydrophthalazin-1(2H)-one] |
| 1000 to 30000 | CC(=O)c1cccc(C2CCc3c(cnn(-c4ncccn4)c3=O)C2)c1C (centres unmarked) [Example 120, 6-(3-acetyl-2-methylphenyl)-2-(pyrimidin-2-yl)-5,6,7,8-tetrahydrophthalazin-1(2H)-one] |
| 500 to 1000 | O=c1c2c(cnn1-c1ncccn1)CC(c1cccc3c1ccn3C1CC1)CC2 (single isomer, unassigned; (+)) [Example 138, (+)-6-(1-cyclopropyl-1H-indol-4-yl)-2-(pyrimidin-2-yl)-5,6,7,8-tetrahydrophthalazin-1(2H)-one] |
| < 500 | O=c1c2c(cnn1-c1ncccn1)CC(c1cccc(OC3CC3)c1Cl)CC2 (centres unmarked) [Example 91, 6-(2-chloro-3-cyclopropoxyphenyl)-2-(pyrimidin-2-yl)-5,6,7,8-tetrahydrophthalazin-1(2H)-one] |
| < 500 | COc1cnc(-n2ncc3c(c2=O)CCC(c2ccc(C)cc2C)C3)nc1 (centres unmarked) [Example 53, 6-(2,4-dimethylphenyl)-2-(5-methoxypyrimidin-2-yl)-5,6,7,8-tetrahydrophthalazin-1(2H)-one] |
| < 500 | Cc1ccc(C2CCc3c(cnn(-c4cccc(C)n4)c3=O)C2)c(C)c1 (centres unmarked) [Example 17, 6-(2,4-dimethylphenyl)-2-(6-methylpyridin-2-yl)-5,6,7,8-tetrahydrophthalazin-1(2H)-one] |
| < 500 | COc1cccc(C2CCc3c(cnn(-c4ncc(C)cn4)c3=O)C2)c1Cl (single isomer, unassigned; (-)) [Example 134, (−)-6-(2-chloro-3-methoxyphenyl)-2-(5-methylpyrimidin-2-yl)-5,6,7,8-tetrahydrophthalazin-1(2H)-one] |
| < 500 | CN(C)c1cccc(C2CCc3c(cnn(-c4ccccn4)c3=O)C2)c1 (centres unmarked) [Example 59, 6-(3-(dimethylamino)phenyl)-2-(pyridin-2-yl)-5,6,7,8-tetrahydrophthalazin-1(2H)-one] |
| 1000 to 30000 | Cc1cnc(-n2ncc3c(c2=O)CCC(c2cccc(OC4CC4)c2C)C3)nc1 (single isomer, unassigned; (+)) [Example 133, (+)-6-(3-cyclopropoxy-2-methylphenyl)-2-(5-methylpyrimidin-2-yl)-5,6,7,8-tetrahydrophthalazin-1(2H)-one] |
| < 500 | Cc1ccc(C2CCc3c(cnn(-c4cc(Cl)ccn4)c3=O)C2)c(C)c1 (centres unmarked) [Example 7, 2-(4-chloropyridin-2-yl)-6-(2,4-dimethylphenyl)-5,6,7,8-tetrahydrophthalazin-1(2H)-one] |
| 500 to 1000 | COc1cccc(C2CCc3c(cnn(-c4ccccn4)c3=O)C2)c1 (centres unmarked) [Example 2, 6-(3-methoxyphenyl)-2-(pyridin-2-yl)-5,6,7,8-tetrahydrophthalazin-1(2H)-one] |

Further lines, the compound ahead of its results:

| SMILES | IC50 [nM] |
| --- | --- |
| CC(O)c1cccc(C2CCc3c(cnn(-c4ccccn4)c3=O)C2)c1 (centres unmarked) [Example 65, 6-(3-(1-hydroxyethyl)phenyl)-2-(pyridin-2-yl)-5,6,7,8-tetrahydrophthalazin-1(2H)-one] | 500 to 1000 |
| CCOc1cccc(C2CCc3c(cnn(-c4ncccn4)c3=O)C2)c1C (centres unmarked) [Example 101, 6-(3-ethoxy-2-methylphenyl)-2-(pyrimidin-2-yl)-5,6,7,8-tetrahydrophthalazin-1(2H)-one] | < 500 |
| COc1ccnc(-n2ncc3c(c2=O)CCC(c2cccc(OC)c2C)C3)n1 (centres unmarked) [Example 42, 6-(3-methoxy-2-methylphenyl)-2-(4-methoxypyrimidin-2-yl)-5,6,7,8-tetrahydrophthalazin-1(2H)-one] | < 500 |
| COc1ccc(C2CCc3c(cnn(-c4ncccn4)c3=O)C2)c(C)c1 (centres unmarked) [Example 87, 6-(4-methoxy-2-methylphenyl)-2-(pyrimidin-2-yl)-5,6,7,8-tetrahydrophthalazin-1(2H)-one] | < 500 |
| COc1cccc(C2CCc3c(cnn(-c4ncc(C)cn4)c3=O)C2)c1C (centres unmarked) [Example 41, 6-(3-methoxy-2-methylphenyl)-2-(5-methylpyrimidin-2-yl)-5,6,7,8-tetrahydrophthalazin-1(2H)-one] | < 500 |
| Cc1ccc(C2CCc3c(cnn(-c4cnccn4)c3=O)C2)c(C)c1 (centres unmarked) [Example 30, 6-(2,4-dimethylphenyl)-2-(pyrazin-2-yl)-5,6,7,8-tetrahydrophthalazin-1(2H)-one] | < 500 |
| O=c1c2c(cnn1-c1ccccn1)CC(c1cccc(C3CC3)c1)CC2 (centres unmarked) [Example 63, 6-(3-cyclopropylphenyl)-2-(pyridin-2-yl)-5,6,7,8-tetrahydrophthalazin-1(2H)-one] | 500 to 1000 |
| CC(=O)Nc1cnc(-n2ncc3c(c2=O)CCC(c2cccc(OC4CC4)c2C)C3)nc1 (centres unmarked) [Example 127, N-(2-(6-(3-cyclopropoxy-2-methylphenyl)-1-oxo-5,6,7,8-tetrahydrophthalazin-2(1H)-yl)pyrimidin-5-yl)acetamide] | < 500 |
| COc1cccc(C2CCc3c(cnn(-c4ncccn4)c3=O)C2)c1C (centres unmarked) [Example 40, 6-(3-methoxy-2-methylphenyl)-2-(pyrimidin-2-yl)-5,6,7,8-tetrahydrophthalazin-1(2H)-one] | < 500 |
| COc1cccc(C2CCc3c(cnn(-c4ncc(C)cn4)c3=O)C2)c1Cl (single isomer, unassigned; (+)) [Example 135, (+)-6-(2-chloro-3-methoxyphenyl)-2-(5-methylpyrimidin-2-yl)-5,6,7,8-tetrahydrophthalazin-1(2H)-one] | 500 to 1000 |
| Cc1c(OC2CC2)cccc1C1CCc2c(cnn(-c3ncccn3)c2=O)C1 (single isomer, unassigned; (+)) [Example 129, (+)-6-(3-cyclopropoxy-2-methylphenyl)-2-(pyrimidin-2-yl)-5,6,7,8-tetrahydrophthalazin-1(2H)-one] | 500 to 1000 |
| O=c1c2c(cnn1-c1ncccn1)CC(c1cccc3c1ccn3C1CC1)CC2 (single isomer, unassigned; (-)) [Example 139, (−)-6-(1-cyclopropyl-1H-indol-4-yl)-2-(pyrimidin-2-yl)-5,6,7,8-tetrahydrophthalazin-1(2H)-one] | < 500 |
| O=c1c2c(cnn1-c1ccccn1)CC(c1cccc(OC3CC3)c1)CC2 (centres unmarked) [Example 66, 6-(3-cyclopropoxyphenyl)-2-(pyridin-2-yl)-5,6,7,8-tetrahydrophthalazin-1(2H)-one] | < 500 |
| COc1ccc(C)cc1C1CCc2c(cnn(-c3ncccn3)c2=O)C1 (centres unmarked) [Example 76, 6-(2-methoxy-5-methylphenyl)-2-(pyrimidin-2-yl)-5,6,7,8-tetrahydrophthalazin-1(2H)-one] | < 500 |
| COc1ccc(C)c(C2CCc3c(cnn(-c4ncc(C)cn4)c3=O)C2)c1 (centres unmarked) [Example 47, 6-(5-methoxy-2-methylphenyl)-2-(5-methylpyrimidin-2-yl)-5,6,7,8-tetrahydrophthalazin-1(2H)-one] | < 500 |
| COc1ccc(C)c(C2CCc3c(cnn(-c4ncc(Cl)cn4)c3=O)C2)c1 (centres unmarked) [Example 49, 2-(5-chloropyrimidin-2-yl)-6-(5-methoxy-2-methylphenyl)-5,6,7,8-tetrahydrophthalazin-1(2H)-one] | < 500 |
| COc1cnc(-n2ncc3c(c2=O)CCC(c2cccc(OC)c2C)C3)cn1 (centres unmarked) [Example 44, 6-(3-methoxy-2-methylphenyl)-2-(5-methoxypyrazin-2-yl)-5,6,7,8-tetrahydrophthalazin-1(2H)-one] | < 500 |
